Results from patent publication US20260262643A1, “HERBICIDAL BENZOXAZINES” (FMC CORPORATION, priority 2022, published 2026).

How the values were obtained:
barnyardgrass [1] = test: Test C preemergence; assay type: in vivo, Echinochloa crusgalli
Method in brief: (§1)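 Visual injury ratings on a 0–100 scale (100 = complete control) were made against untreated controls 10 days after treatment in the greenhouse. Compounds, formulated with surfactant in non-phytotoxic solvent, were sprayed on soil preemergence or onto one- to two-leaf plants 2–10 cm tall postemergence.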

blackgrass [2] = test: Test C preemergence; assay type: in vivo, Alopecurus myosuroides
Method in brief: as §1

corn [3] = test: Test C preemergence; assay type: in vivo, Zea mays
Method in brief: as §1

green foxtail [4] = test: Test C preemergence; assay type: in vivo, Setaria viridis
Method in brief: as §1

kochia [5] = test: Test C preemergence; assay type: in vivo, Bassia scoparia
Method in brief: as §1

oat, wild [6] = test: Test C preemergence; assay type: in vivo, Avena fatua
Method in brief: as §1

pigweed, palmer [7] = test: Test C preemergence; assay type: in vivo, Amaranthus palmeri
Method in brief: as §1

ragweed [8] = test: Test C preemergence; assay type: in vivo, Ambrosia artemisiifolia
Method in brief: as §1

ryegrass, Italian [9] = test: Test C preemergence; assay type: in vivo, Lolium multiflorum
Method in brief: as §1

soybean [10] = test: Test C preemergence; assay type: in vivo, Glycine max
Method in brief: as §1

wheat [11] = test: Test C preemergence; assay type: in vivo, Triticum aestivum
Method in brief: as §1

barnyardgrass [12] = test: Test C postemergence; assay type: in vivo, Echinochloa crusgalli; details: 10 days, 0 to 100 scale (0 no effect, 100 complete control)
Method in brief: as §1

blackgrass [13] = test: Test C postemergence; assay type: in vivo, Alopecurus myosuroides; details: 10 days, 0 to 100 scale (0 no effect, 100 complete control)
Method in brief: as §1

corn [14] = test: Test C postemergence; assay type: in vivo, Zea mays; details: 10 days, 0 to 100 scale (0 no effect, 100 complete control)
Method in brief: as §1

green foxtail [15] = test: Test C postemergence; assay type: in vivo, Setaria viridis; details: 10 days, 0 to 100 scale (0 no effect, 100 complete control)
Method in brief: as §1

kochia [16] = test: Test C postemergence; assay type: in vivo, Bassia scoparia; details: 10 days, 0 to 100 scale (0 no effect, 100 complete control)
Method in brief: as §1

oat, wild [17] = test: Test C postemergence; assay type: in vivo, Avena fatua; details: 10 days, 0 to 100 scale (0 no effect, 100 complete control)
Method in brief: as §1

pigweed, palmer [18] = test: Test C postemergence; assay type: in vivo, Amaranthus palmeri; details: 10 days, 0 to 100 scale (0 no effect, 100 complete control)
Method in brief: as §1

ragweed [19] = test: Test C postemergence; assay type: in vivo, Ambrosia artemisiifolia; details: 10 days, 0 to 100 scale (0 no effect, 100 complete control)
Method in brief: as §1

ryegrass, Italian [20] = test: Test C postemergence; assay type: in vivo, Lolium multiflorum; details: 10 days, 0 to 100 scale (0 no effect, 100 complete control)
Method in brief: as §1

soybean [21] = test: Test C postemergence; assay type: in vivo, Glycine max; details: 10 days, 0 to 100 scale (0 no effect, 100 complete control)
Method in brief: as §1

wheat [22] = test: Test C postemergence; assay type: in vivo, Triticum aestivum; details: 10 days, 0 to 100 scale (0 no effect, 100 complete control)
Method in brief: as §1

galium = test: Test C postemergence; assay type: in vivo, Galium aparine; details: 10 days, 0 to 100 scale (0 no effect, 100 complete control)
Method in brief: as §1

horseweed = test: Test C postemergence; assay type: in vivo, Erigeron canadensis; details: 10 days, 0 to 100 scale (0 no effect, 100 complete control)
Method in brief: as §1

barnyardgrass [23] = test: Test D flooded paddy test; assay type: in vivo, Echinochloa crus-galli; details: 250 g ai/ha, applied to paddy water, visual rating after 13 to 14 days, scale 0 to 100 (0 no effect, 100 complete control)
Method in brief: (§2)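 Visual ratings from 0, meaning no effect, to 100, meaning complete control, were assigned against untreated controls 13 to 14 days after compounds were added to the floodwater of pots kept 3 cm deep, with plants at the 2-leaf stage.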

ducksalad = test: Test D flooded paddy test; assay type: in vivo, Heteranthera limosa; details: 250 g ai/ha, applied to paddy water, visual rating after 13 to 14 days, scale 0 to 100 (0 no effect, 100 complete control)
Method in brief: as §2

rice = test: Test D flooded paddy test; assay type: in vivo, Oryza sativa; details: 250 g ai/ha, applied to paddy water, visual rating after 13 to 14 days, scale 0 to 100 (0 no effect, 100 complete control)
Method in brief: as §2

sedge, umbrella = test: Test D flooded paddy test; assay type: in vivo, Cyperus difformis; details: 250 g ai/ha, applied to paddy water, visual rating after 13 to 14 days, scale 0 to 100 (0 no effect, 100 complete control)
Method in brief: as §2

[24] = 500 g ai/ha, preemergence, 0 to 100 scale (0 no effect, 100 complete control)
[25] = Preemergence, 125 g ai/ha, 0 to 100 scale, 0 no effect, 100 complete control

Cc1ccc(-n2cnc(CC#N)n2)cc1C(=O)N1C[C@H](C)Oc2c(Cl)cccc21 [Compound 364]
Barnyardgrass plant response rating (barnyardgrass [1]; [24]): 100 | Plant response rating, Barnyardgrass (barnyardgrass [1]; [25]): 50 | Blackgrass plant response rating (blackgrass [2]; [24]): 90 | Plant response rating, Blackgrass (blackgrass [2]; [25]): 60 | Corn plant response rating (corn [3]; [24]): 30 | Plant response rating, Corn (corn [3]; [25]): 10 | Foxtail, Green plant response rating (green foxtail [4]; [24]): 100 | Plant response rating, Foxtail, Green (green foxtail [4]; [25]): 100 | Kochia plant response rating (kochia [5]; [24]): 90 | Plant response rating, Kochia (kochia [5]; [25]): 70 | Oat, Wild plant response rating (oat, wild [6]; [24]): 30 | Plant response rating, Oat, Wild (oat, wild [6]; [25]): 10 | Pigweed, Palmer plant response rating (pigweed, palmer [7]; [24]): 100 | Plant response rating, Pigweed, Palmer (pigweed, palmer [7]; [25]): 100 | Ragweed plant response rating (ragweed [8]; [24]): 80 | Plant response rating, Ragweed (ragweed [8]; [25]): 20 | Ryegrass, Italian plant response rating (ryegrass, Italian [9]; [24]): 90 | Plant response rating, Ryegrass, Italian (ryegrass, Italian [9]; [25]): 60 | Soybean plant response rating (soybean [10]; [24]): 100 | Plant response rating, Soybean (soybean [10]; [25]): 100 | Wheat plant response rating (wheat [11]; [24]): 40 | Plant response rating, Wheat (wheat [11]; [25]): 0 | Plant response rating, Barnyardgrass (barnyardgrass [12]; 500 g ai/ha, postemergence): 80 | Plant response rating, Barnyardgrass (barnyardgrass [12]; Postemergence, 125 g ai/ha): 50 | Plant response rating, Blackgrass (blackgrass [13]; 500 g ai/ha, postemergence): 100 | Plant response rating, Blackgrass (blackgrass [13]; Postemergence, 125 g ai/ha): 90 | Plant response rating, Corn (corn [14]; 500 g ai/ha, postemergence): 50 | Plant response rating, Corn (corn [14]; Postemergence, 125 g ai/ha): 30 | Plant response rating, Foxtail, Green (green foxtail [15]; 500 g ai/ha, postemergence): 90 | Plant response rating, Foxtail, Green (green foxtail [15]; Postemergence, 125 g ai/ha): 80 | Plant response rating, Kochia (kochia [16]; 500 g ai/ha, postemergence): 90 | Plant response rating, Kochia (kochia [16]; Postemergence, 125 g ai/ha): 70 | Plant response rating, Oat, Wild (oat, wild [17]; 500 g ai/ha, postemergence): 70 | Plant response rating, Oat, Wild (oat, wild [17]; Postemergence, 125 g ai/ha): 60 | Plant response rating, Pigweed, Palmer (pigweed, palmer [18]; 500 g ai/ha, postemergence): 90 | Plant response rating, Pigweed, Palmer (pigweed, palmer [18]; Postemergence, 125 g ai/ha): 70 | Plant response rating, Ragweed (ragweed [19]; 500 g ai/ha, postemergence): 80 | Plant response rating, Ragweed (ragweed [19]; Postemergence, 125 g ai/ha): 70 | Plant response rating, Ryegrass, Italian (ryegrass, Italian [20]; 500 g ai/ha, postemergence): 100 | Plant response rating, Ryegrass, Italian (ryegrass, Italian [20]; Postemergence, 125 g ai/ha): 70 | Plant response rating, Soybean (soybean [21]; 500 g ai/ha, postemergence): 100 | Plant response rating, Soybean (soybean [21]; Postemergence, 125 g ai/ha): 100 | Plant response rating, Wheat (wheat [22]; 500 g ai/ha, postemergence): 80 | Plant response rating, Wheat (wheat [22]; Postemergence, 125 g ai/ha): 30 | Plant response rating, Galium (galium; 500 g ai/ha, postemergence): 100 | Plant response rating, Galium (galium; Postemergence, 125 g ai/ha): 100 | Plant response rating, Horseweed (horseweed; 500 g ai/ha, postemergence): 0 | Plant response rating, Horseweed (horseweed; Postemergence, 125 g ai/ha): 0 | Plant response rating, Barnyardgrass (Flood) (barnyardgrass [23]): 10 | Plant response rating, Ducksalad (Flood) (ducksalad): 80 | Plant response rating, Rice (Flood) (rice): 10 | Plant response rating, Sedge, Umbrella (Flood) (sedge, umbrella): 95
